Experimental findings from patent US12103952B2, “Methods for expressing proteins in axons” (Cornell University, priority 2010, dated 2024) are described below.

One assay has as its system pCREB. Briefly: Nuclear pCREB, pTrkA and pErk5 immunofluorescence after axonal NGF in compartmented cultures. It counts as cell-based, rat. The conditions noted are these: 30 ng/ml NGF on axons, 20 min. An excerpt: FIGS. 9A-E are data showing that axonal CREB is required for CRE-dependent transcription and NGF-mediated DRG survival. (A) DRG axons in compartmented cultures were transfected with CREB siRNA in the axon compartment only, and CREB levels were detected using a CREB antibody. Axons crossing the compartment divider were retrogradely labeled with WGA-Alexa488. All compartments were maintained in NGF-containing media throughout the experiment. Scale bar, 50 μm. (B) Quantification of data in (A). Immunofluorescence levels in each compartment were normalized to fluorescence signals from cultures treated with non-targeting siRNA. *p<0.0001. Numbers on bars represent n axons per condition. […] After 48 hours, 30 ng/ml NGF was added to the axon compartment for 20 min, after which pCREB levels in nuclei were quantified by immunofluorescence. *p=0.0004. […]
FIGS. 10A-G are data showing selective CREB knockdown in distal axons, but not proximal axons determined by compartmentalized siRNA transfection. […] (B) Quantification of data in (A). FISH levels in each compartment were normalized to fluorescence signals from cultures treated with non-targeting siRNA. β-actin mRNA FISH signals were unaffected by CREB-specific siRNA. *p<0.001. […] (C) Transfection was as in FIG. 9A, except CREB knockdown was assessed by Western blot instead of immunofluorescence. […]

The subject of assay [1] is CRE-dependent transcription. Briefly: CRE-luciferase adenovirus reporter in DRG neurons. The class given is cell-based, rat.

Regarding NGF: nerve growth factor, in the assay with pCREB, the “levels of pCREB in the nucleus” value is reported as “increased levels of pCREB in the nucleus”. Moreover, the luciferase levels entry in assay [1] (axonal application of NGF) was “increased luciferase levels”. For the same substance, the luciferase immunofluorescence result in assay [1] (bath application of NGF, 0-100 ng/ml, 24 hours) was “dose-dependent increase in luciferase immunofluorescence”.
